# Target: T1, human apelin receptor (Homo sapiens, UniProt P35414)
# T1 construct: expressed in transfected cells
# T1 sequence (P35414 1-380): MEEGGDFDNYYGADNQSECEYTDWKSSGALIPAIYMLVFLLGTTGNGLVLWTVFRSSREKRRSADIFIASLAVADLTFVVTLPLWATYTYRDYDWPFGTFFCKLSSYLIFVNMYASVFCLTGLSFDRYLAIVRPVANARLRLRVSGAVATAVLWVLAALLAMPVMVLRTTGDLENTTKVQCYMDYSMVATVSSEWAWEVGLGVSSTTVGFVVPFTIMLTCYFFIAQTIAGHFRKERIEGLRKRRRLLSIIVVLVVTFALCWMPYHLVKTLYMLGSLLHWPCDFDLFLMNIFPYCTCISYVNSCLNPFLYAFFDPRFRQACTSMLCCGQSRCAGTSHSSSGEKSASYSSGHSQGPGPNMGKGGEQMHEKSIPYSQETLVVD
# Assay: Determination of agonism on the human apelin receptor by a calcium fluorescence assay (FLIPR)
# Assay type: cell-based
# Details: HEK293 cells stably transfected with human apelin receptor and Giaq protein, Fluo-4 calcium fluorescence, read-out: EC50 (APJ agonism)
# Outline: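 Agonist EC50s come from peak intracellular calcium transients recorded by FLIPR Tetra, scaled to the 1 μM apelin-13 maximum per plate. Test system: HEK293 stably transfected with human apelin receptor plus Giaq, Fluo-4-loaded (4 μM, 1 h, 37 °C, pH 7.4 buffer with probenecid); ≥7 concentrations, triplicates.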
row,SMILES,EC50 [nM]
1,"CCC(CC)n1c(Cc2cccs2)nc2cc(C(=O)N[C@@H](CC(C)C)C(=O)N3CCSCC3)ccc21 [Example 217, 1-(1-Ethyl-propyl)-2-thiophen-2-ylmethyl-1H-benzoimidazole-5-carboxylic acid [(S)-3-methyl-1-(thiomorpholine-4-carbonyl)-butyl]-amide]",2210
2,"CCC(CC)n1c(Cc2cccs2)nc2cc(C(=O)N[C@@H](CC(C)C)C(=O)N3CCC(N4CCN(C)CC4)CC3)ccc21 [Example 280, 1-(1-Ethyl-propyl)-2-thiophen-2-ylmethyl-1H-benzoimidazole-5-carboxylic acid {(S)-3-methyl-1-[4-(4-methyl-piperazin-1-yl)-piperidine-1-carbonyl]-butyl}-amide]",219
3,"CCC(CC)n1c(Cc2cscn2)nc2cc(C(=O)N[C@H](COC)CC(C)C)ccc21 [Example 206, 1-(1-Ethyl-propyl)-2-thiazol-4-ylmethyl-1H-benzoimidazole-5-carboxylic acid ((S)-1-methoxymethyl-3-methyl-butyl)-amide]",2300
4,"CCC(CC)n1c(Cc2cccs2)nc2cc(C(=O)N[C@@H](CC(C)C)C(=O)NC3CC4CCCC(C3)N4C)ccc21 (stereo partly drawn) [Example 292, 1-(1-Ethyl-propyl)-2-thiophen-2-ylmethyl-1H-benzoimidazole-5-carboxylic acid [(S)-3-methyl-1-(9-methyl-9-aza-bicyclo[3.3.1]non-3-ylcarbamoyl)-butyl]-amide]",1220
5,"CCC(CC)n1c(Cc2cccs2)nc2cc(C(=O)N[C@@H](CC(C)C)C(=O)Nc3cccc(N4CCOCC4)c3)ccc21 [Example 333, 1-(1-Ethyl-propyl)-2-thiophen-2-ylmethyl-1H-benzoimidazole-5-carboxylic acid [(S)-3-methyl-1-(3-morpholin-4-yl-phenylcarbamoyl)-butyl]-amide]",27300
6,"CCC(CC)n1c(Cc2cccs2)nc2cc(C(=O)N[C@@H](CC(C)C)C(=O)NCC(=O)O)ccc21 [Example 408, ((S)-2-{[1-(1-Ethyl-propyl)-2-thiophen-2-ylmethyl-1H-benzoimidazole-5-carbonyl]-amino}-4-methyl-pentanoylamino)-acetic acid]",447
7,"CC1CCC(NC(=O)c2ccc3c(c2)nc(Cc2cccs2)n3[C@@H]2CCCC[C@H]2C)(C(=O)O)CC1 (stereo partly drawn) [Example 35, 4-Methyl-1-{[1-((1R,2R)-2-methyl-cyclohexyl)-2-thiophen-2-ylmethyl-1H-benzoimidazole-5-carbonyl]-amino}-cyclohexanecarboxylic acid]",291
8,"CCC[C@H](CO)NC(=O)c1ccc2c(c1)nc(Cc1cccs1)n2C(CC)CC [Example 200, 1-(1-Ethyl-propyl)-2-thiophen-2-ylmethyl-1H-benzoimidazole-5-carboxylic acid ((R)-1-hydroxymethyl-butyl)-amide]",8180
9,"CCC(CC)n1c(Cc2cccs2)nc2cc(C(=O)N[C@H](CC(=O)O)CC3CCCC3)ccc21 [Example 60, (S)-4-Cyclopentyl-3-{[1-(1-ethyl-propyl)-2-thiophen-2-ylmethyl-1H-benzoimidazole-5-carbonyl]-amino}-butyric acid]",46
10,"CCC(CC)n1c(Cc2cccs2)nc2cc(C(=O)N[C@@H](CO)CCSC)ccc21 [Example 195, 1-(1-Ethyl-propyl)-2-thiophen-2-ylmethyl-1H-benzoimidazole-5-carboxylic acid ((R)-1-hydroxymethyl-3-methylsulfanyl-propyl)-amide]",15200
11,"CCC(CC)n1c(Cc2cccs2)nc2cc(C(=O)N[C@@H](CC(C)C)C(=O)NCCC3CCCN3C)ccc21 (stereo partly drawn) [Example 219, 1-(1-Ethyl-propyl)-2-thiophen-2-ylmethyl-1H-benzoimidazole-5-carboxylic acid {(S)-3-methyl-1-[2-(1-methyl-pyrrolidin-2-yl)-ethylcarbamoyl]-butyl}-amide]",274
12,"CCC(CC)n1c(Cc2cccs2)nc2cc(C(=O)N[C@H](CC(=O)O)Cc3ccccc3)ccc21 [Example 100, (S)-3-{[1-(1-Ethyl-propyl)-2-thiophen-2-ylmethyl-1H-benzoimidazole-5-carbonyl]-amino}-4-phenyl-butyric acid]",5840
13,"CCC(CC)n1c(Cc2cccs2)nc2cc(C(=O)N[C@@H](CC(C)C)C(=O)NCCCOC(C)C)ccc21 [Example 358, 1-(1-Ethyl-propyl)-2-thiophen-2-ylmethyl-1H-benzoimidazole-5-carboxylic acid [(S)-1-(3-isopropoxy-propylcarbamoyl)-3-methyl-butyl]-amide]",2570
14,"CCC(CC)n1c(Cc2cccs2)nc2cc(C(=O)N[C@H](CCC(=O)O)[C@@H](C)CC)ccc21 [Example 71, (4R,5S)-4-{[1-(1-Ethyl-propyl)-2-thiophen-2-ylmethyl-1H-benzoimidazole-5-carbonyl]-amino}-5-methyl-heptanoic acid]",73
15,"CCCCC(NC(=O)c1ccc2c(c1)nc(Cc1cccs1)n2C(CC)CC)C(C)(C)C(=O)O (stereo not shown) [Example 58, 3-{[1-(1-Ethyl-propyl)-2-thiophen-2-ylmethyl-1H-benzoimidazole-5-carbonyl]-amino}-2,2-dimethyl-heptanoic acid]",172
16,"CCOCCCNC(=O)[C@H](CC(C)C)NC(=O)c1ccc2c(c1)nc(Cc1cccs1)n2C(CC)CC [Example 359, 1-(1-Ethyl-propyl)-2-thiophen-2-ylmethyl-1H-benzoimidazole-5-carboxylic acid [(S)-1-(3-ethoxy-propylcarbamoyl)-3-methyl-butyl]-amide]",2140
17,"CCC(CC)n1c(Cn2cccn2)nc2cc(C(=O)N[C@H](CC(=O)O)CC(C)C)ccc21 [Example 49, (S)-3-{[1-(1-Ethyl-propyl)-2-pyrazol-1-ylmethyl-1H-benzoimidazole-5-carbonyl]-amino}-5-methyl-hexanoic acid]",7070
18,"CCC(CC)n1c(Cc2cccs2)nc2cc(C(=O)NC(CC(=O)O)CC3CCCCC3)ccc21 (single isomer, unassigned) [Example 455]",160
19,"CCC(CC)n1c(Cc2cccs2)nc2cc(C(=O)N[C@@H](CC3CCCCC3)[C@H](O)CC(=O)O)ccc21 [Example 73, (3R,4S)-5-Cyclohexyl-4-{[1-(1-ethyl-propyl)-2-thiophen-2-ylmethyl-1H-benzoimidazole-5-carbonyl]-amino}-3-hydroxy-pentanoic acid]",65
20,"CCC[C@H](CO)NC(=O)c1ccc2c(c1)nc(CC1CCCC1)n2C(CC)CC [Example 185, 2-Cyclopentylmethyl-1-(1-ethyl-propyl)-1H-benzoimidazole-5-carboxylic acid ((R)-1-hydroxymethyl-butyl)-amide]",14100
21,"CCCC(C)(NC(=O)c1ccc2c(c1)nc(Cc1cccs1)n2C(CC)CC)C(=O)O (stereo not shown) [Example 25, 2-{[1-(1-Ethyl-propyl)-2-thiophen-2-ylmethyl-1H-benzoimidazole-5-carbonyl]-amino}-2-methyl-pentanoic acid]",4750
22,"CCC(CC)n1c(Cc2cccs2)nc2cc(C(=O)N[C@@H](CC(C)C)C(=O)N(C)CCOC)ccc21 [Example 380, 1-(1-Ethyl-propyl)-2-thiophen-2-ylmethyl-1H-benzoimidazole-5-carboxylic acid {(S)-1-[(2-methoxy-ethyl)-methyl-carbamoyl]-3-methyl-butyl}-amide]",586
23,"CCC(CC)n1c(Cc2cccs2)nc2cc(C(=O)N[C@@H](CC(C)C)C(=O)Nc3ccccc3OC)ccc21 [Example 255, 1-(1-Ethyl-propyl)-2-thiophen-2-ylmethyl-1H-benzoimidazole-5-carboxylic acid [(S)-1-(2-methoxy-phenylcarbamoyl)-3-methyl-butyl]-amide]",6670
24,"C[C@@H]1CCCC[C@H]1n1c(Cc2cccs2)nc2cc(C(=O)NC(CC3CCC(C)(C)CC3)C(=O)O)ccc21 (stereo partly drawn) [Example 33, 3-(4,4-Dimethyl-cyclohexyl)-2-{[1-((1R,2R)-2-methyl-cyclohexyl)-2-thiophen-2-ylmethyl-1H-benzoimidazole-5-carbonyl]-amino}-propionic acid]",3210
25,"O=C(N[C@@H](CC1CCCCC1)C(=O)O)c1ccc2c(c1)nc(Cc1cccs1)n2C1CCCCC1C(F)(F)F (stereo partly drawn) [Example 17, (S)-3-Cyclohexyl-2-{[2-thiophen-2-ylmethyl-1-(2-trifluoromethyl-cyclohexyl)-1H-benzoimidazole-5-carbonyl]-amino}-propionic acid]",935
26,"CCC(CC)n1c(Cc2cccs2)nc2cc(C(=O)NC(CC(C)C)c3nccs3)ccc21 (stereo not shown) [Example 479, 1-(1-Ethyl-propyl)-2-thiophen-2-ylmethyl-1H-benzoimidazole-5-carboxylic acid (3-methyl-1-thiazol-2-yl-butyl)-amide]",16900
27,"CCC(CC)n1c(Cc2cccs2)nc2cc(C(=O)N[C@@H](CC(C)C)C(=O)N3CCN(c4ccccc4)CC3)ccc21 [Example 235, 1-(1-Ethyl-propyl)-2-thiophen-2-ylmethyl-1H-benzoimidazole-5-carboxylic acid [(S)-3-methyl-1-(4-phenyl-piperazine-1-carbonyl)-butyl]-amide]",1300
28,"CCC(CC)n1c(Cc2cccs2)nc2cc(C(=O)N[C@@H](CC(C)C)C(=O)N3CCC[C@@H]3C(=O)O)ccc21 [Example 410, (R)-1-((S)-2-{[1-(1-Ethyl-propyl)-2-thiophen-2-ylmethyl-1H-benzoimidazole-5-carbonyl]-amino}-4-methyl-pentanoyl)-pyrrolidine-2-carboxylic acid]",578

# Source: patent US9156796B2, “Benzoimidazole-carboxylic acid amide derivatives as APJ receptor modulators” (SANOFI, priority 2013, dated 2015)
